ChEMBL document CHEMBL5212743, “Selectivity Literature for EUbOPEN Chemogenomics Library wave 3” (2023)
Where a chain is given by its changes, count along the chain named. Each block holds one compound with its values, some of them ahead of it.

Tests used:
Aurora kinase B = Aurora kinase B (Homo sapiens, UniProt Q96GD4); assay: Selectivity interaction (Enzymatic assay) EUB0000178b AURKB
[1] = target: Tyrosine-protein kinase ABL1 (Homo sapiens, UniProt P00519, T315I); assay: Selectivity interaction (Enzymatic assay) EUB0000178b ABL1
[2] = tested on: Tyrosine-protein kinase ABL1 (Homo sapiens), P00519 [Q252H]; assay: (§1) Selectivity interaction (KinomeScan (DiscoverX)) EUB0000178b ABL1; conditions: at 1 µM
[3] = tested on: Tyrosine-protein kinase ABL1 (Homo sapiens), P00519 [T315I]; assay: as §1; conditions: at 1 µM
[4] = tested on: Tyrosine-protein kinase ABL1 (Homo sapiens), P00519 [M351T]; assay: as §1; conditions: at 1 µM
[5] = target: Serine/threonine-protein kinase 24 (Homo sapiens) (UniProt Q9Y6E0); assay: Selectivity interaction (KinomeScan (DiscoverX)) EUB0000178b STK24; conditions: at 1 µM
Sequence of Serine/threonine-protein kinase 24 (Homo sapiens) (Q9Y6E0 whole entry, looked up): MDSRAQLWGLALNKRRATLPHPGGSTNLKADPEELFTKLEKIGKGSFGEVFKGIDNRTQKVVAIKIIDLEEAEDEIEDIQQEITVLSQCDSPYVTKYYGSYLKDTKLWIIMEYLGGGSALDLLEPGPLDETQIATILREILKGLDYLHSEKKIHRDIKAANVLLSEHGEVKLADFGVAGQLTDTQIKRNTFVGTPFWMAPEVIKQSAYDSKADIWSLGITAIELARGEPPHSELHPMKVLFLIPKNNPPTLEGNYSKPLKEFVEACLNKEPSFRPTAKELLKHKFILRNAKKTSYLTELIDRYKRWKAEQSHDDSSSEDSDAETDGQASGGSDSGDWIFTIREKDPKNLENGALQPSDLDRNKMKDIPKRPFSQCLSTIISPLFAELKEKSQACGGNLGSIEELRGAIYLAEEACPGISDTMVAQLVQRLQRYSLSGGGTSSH

[6] = tested on: T1, Receptor-type tyrosine-protein kinase FLT3 (Homo sapiens), P36888 [N841I]; assay: (§2) Selectivity interaction (KinomeScan (DiscoverX)) EUB0000702a FLT3; conditions: at 1 µM
T1 sequence (whole entry): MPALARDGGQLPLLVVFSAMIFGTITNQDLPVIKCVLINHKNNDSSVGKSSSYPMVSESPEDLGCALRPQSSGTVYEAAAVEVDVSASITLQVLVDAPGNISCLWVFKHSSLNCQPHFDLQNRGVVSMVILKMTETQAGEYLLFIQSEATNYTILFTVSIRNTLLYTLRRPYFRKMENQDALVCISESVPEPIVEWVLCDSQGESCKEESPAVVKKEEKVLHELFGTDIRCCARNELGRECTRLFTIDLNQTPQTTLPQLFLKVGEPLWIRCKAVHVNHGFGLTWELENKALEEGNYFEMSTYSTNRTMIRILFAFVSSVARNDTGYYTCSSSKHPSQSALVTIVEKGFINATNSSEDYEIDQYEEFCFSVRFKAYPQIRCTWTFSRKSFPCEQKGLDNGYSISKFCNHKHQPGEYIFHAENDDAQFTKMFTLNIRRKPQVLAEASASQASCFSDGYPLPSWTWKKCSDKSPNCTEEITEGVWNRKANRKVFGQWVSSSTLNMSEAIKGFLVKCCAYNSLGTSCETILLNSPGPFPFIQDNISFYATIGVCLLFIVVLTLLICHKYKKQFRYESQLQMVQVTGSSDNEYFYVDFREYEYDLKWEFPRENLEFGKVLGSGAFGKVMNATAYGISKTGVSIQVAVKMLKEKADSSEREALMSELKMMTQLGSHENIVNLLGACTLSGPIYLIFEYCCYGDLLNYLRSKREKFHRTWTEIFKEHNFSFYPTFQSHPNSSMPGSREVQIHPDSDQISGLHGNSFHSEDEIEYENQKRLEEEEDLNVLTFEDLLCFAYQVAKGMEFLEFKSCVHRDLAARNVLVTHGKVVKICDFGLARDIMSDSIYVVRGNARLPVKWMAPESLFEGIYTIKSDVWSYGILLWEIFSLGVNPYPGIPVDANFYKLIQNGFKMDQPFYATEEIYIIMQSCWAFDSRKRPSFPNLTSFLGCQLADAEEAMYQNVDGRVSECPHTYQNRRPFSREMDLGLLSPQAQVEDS

[7] = target: Receptor-type tyrosine-protein kinase FLT3 (Homo sapiens) (UniProt P36888); assay: as §2; conditions: at 1 µM
[8] = tested on: Receptor-type tyrosine-protein kinase FLT3 (Homo sapiens), P36888 [UNDEFINED MUTATION]; assay: as §2; conditions: at 1 µM
[9] = tested on: T2, Receptor-type tyrosine-protein kinase FLT3 (Homo sapiens), P36888 [D835Y]; assay: as §2; conditions: at 1 µM
T2 sequence (whole entry): T1 sequence (whole entry) with D835Y, I841N

[10] = target: Dual specificity protein kinase CLK4 (Homo sapiens) (UniProt Q9HAZ1); assay: Selectivity interaction (KinomeScan (DiscoverX)) EUB0000702a CLK4; conditions: at 1 µM
Sequence of Dual specificity protein kinase CLK4 (Homo sapiens) (Q9HAZ1 whole entry, looked up): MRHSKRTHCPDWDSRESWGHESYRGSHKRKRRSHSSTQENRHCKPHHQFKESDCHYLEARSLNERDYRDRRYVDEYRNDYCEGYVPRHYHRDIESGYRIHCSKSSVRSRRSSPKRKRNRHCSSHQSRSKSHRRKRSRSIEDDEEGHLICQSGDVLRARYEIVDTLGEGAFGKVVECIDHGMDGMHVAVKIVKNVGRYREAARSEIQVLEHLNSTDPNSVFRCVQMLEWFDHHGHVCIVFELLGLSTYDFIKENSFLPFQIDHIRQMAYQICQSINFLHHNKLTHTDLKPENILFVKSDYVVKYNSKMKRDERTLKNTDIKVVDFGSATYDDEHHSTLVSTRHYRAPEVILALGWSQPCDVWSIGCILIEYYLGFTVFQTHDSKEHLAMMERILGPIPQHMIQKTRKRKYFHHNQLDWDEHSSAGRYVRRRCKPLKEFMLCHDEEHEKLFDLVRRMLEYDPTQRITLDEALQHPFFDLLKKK

[11] = target: Serine/threonine-protein kinase PLK1 (Homo sapiens, UniProt P53350); assay: Selectivity interaction (KinomeScan (DiscoverX)) EUB0000702a PLK1; conditions: at 1 µM
Sequence of Serine/threonine-protein kinase PLK1 (P53350 whole entry): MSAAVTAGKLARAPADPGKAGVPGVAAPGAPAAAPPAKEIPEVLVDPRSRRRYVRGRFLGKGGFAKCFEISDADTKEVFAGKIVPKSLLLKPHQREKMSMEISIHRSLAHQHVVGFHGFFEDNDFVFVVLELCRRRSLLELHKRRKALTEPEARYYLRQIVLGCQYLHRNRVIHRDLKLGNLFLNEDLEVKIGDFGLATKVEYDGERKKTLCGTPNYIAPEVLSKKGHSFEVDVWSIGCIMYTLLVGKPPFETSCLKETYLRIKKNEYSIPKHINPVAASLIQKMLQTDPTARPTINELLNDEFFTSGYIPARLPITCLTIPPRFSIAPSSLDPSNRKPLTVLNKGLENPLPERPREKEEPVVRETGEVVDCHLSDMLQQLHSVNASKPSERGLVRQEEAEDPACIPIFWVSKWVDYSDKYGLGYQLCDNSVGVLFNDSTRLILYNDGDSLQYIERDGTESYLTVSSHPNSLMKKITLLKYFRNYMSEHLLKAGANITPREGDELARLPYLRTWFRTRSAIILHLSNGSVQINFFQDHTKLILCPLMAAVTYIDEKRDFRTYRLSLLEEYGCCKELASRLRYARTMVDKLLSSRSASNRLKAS

Focal adhesion kinase 1 = Focal adhesion kinase 1 (Homo sapiens, UniProt Q05397); assay: Selectivity interaction (KinomeScan (DiscoverX)) EUB0000702a PTK2; conditions: at 1 µM
Sequence of Focal adhesion kinase 1 (Q05397 2-1052 limits assumed): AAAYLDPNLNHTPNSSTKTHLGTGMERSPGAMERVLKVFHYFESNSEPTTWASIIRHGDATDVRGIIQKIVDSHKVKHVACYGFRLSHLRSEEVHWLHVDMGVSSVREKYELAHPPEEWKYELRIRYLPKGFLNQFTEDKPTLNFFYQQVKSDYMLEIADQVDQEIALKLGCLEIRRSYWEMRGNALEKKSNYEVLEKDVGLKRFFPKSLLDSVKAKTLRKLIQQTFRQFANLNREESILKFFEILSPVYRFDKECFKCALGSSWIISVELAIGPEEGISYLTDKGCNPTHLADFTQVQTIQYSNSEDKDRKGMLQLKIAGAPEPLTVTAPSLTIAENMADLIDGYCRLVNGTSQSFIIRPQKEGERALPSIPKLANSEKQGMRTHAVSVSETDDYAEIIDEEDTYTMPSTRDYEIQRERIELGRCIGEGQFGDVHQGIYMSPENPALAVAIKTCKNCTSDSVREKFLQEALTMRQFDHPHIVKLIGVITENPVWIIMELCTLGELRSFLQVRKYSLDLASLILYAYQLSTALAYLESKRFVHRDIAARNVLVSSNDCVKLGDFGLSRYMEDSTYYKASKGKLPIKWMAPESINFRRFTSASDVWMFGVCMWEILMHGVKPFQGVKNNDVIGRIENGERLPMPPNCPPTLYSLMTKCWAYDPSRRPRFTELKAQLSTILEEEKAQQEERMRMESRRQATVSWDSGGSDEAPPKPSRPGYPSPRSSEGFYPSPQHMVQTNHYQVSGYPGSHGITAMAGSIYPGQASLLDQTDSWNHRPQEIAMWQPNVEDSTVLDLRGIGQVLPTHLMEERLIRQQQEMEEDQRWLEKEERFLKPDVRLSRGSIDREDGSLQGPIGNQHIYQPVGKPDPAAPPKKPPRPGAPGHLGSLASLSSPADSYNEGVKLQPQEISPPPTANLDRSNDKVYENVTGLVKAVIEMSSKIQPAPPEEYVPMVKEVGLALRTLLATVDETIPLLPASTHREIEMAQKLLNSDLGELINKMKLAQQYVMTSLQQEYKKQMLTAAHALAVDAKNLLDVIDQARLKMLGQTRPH

[12] = target: Cyclin-dependent kinase 19 (Homo sapiens) (UniProt Q9BWU1); conditions: at 1 µM
Sequence of Cyclin-dependent kinase 19 (Homo sapiens) (Q9BWU1 whole entry): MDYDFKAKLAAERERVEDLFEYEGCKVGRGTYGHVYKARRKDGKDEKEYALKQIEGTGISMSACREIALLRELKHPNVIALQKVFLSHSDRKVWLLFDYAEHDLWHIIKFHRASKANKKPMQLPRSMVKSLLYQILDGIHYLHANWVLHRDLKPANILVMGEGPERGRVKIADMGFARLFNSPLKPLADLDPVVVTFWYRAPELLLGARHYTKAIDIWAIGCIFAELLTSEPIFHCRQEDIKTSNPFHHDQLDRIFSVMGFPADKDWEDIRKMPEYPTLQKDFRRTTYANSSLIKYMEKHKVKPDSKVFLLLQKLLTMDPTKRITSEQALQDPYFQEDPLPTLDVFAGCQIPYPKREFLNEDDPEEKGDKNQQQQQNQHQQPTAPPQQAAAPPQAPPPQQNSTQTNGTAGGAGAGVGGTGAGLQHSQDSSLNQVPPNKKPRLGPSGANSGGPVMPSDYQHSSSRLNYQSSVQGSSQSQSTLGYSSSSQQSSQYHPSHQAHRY

[13] = target: Tyrosine-protein kinase ABL1 (Homo sapiens, UniProt P00519); conditions: at 1 µM
[14] = target: Tyrosine-protein kinase Lck (Homo sapiens, UniProt P06239); conditions: at 1 µM
Sequence of Tyrosine-protein kinase Lck (P06239 whole entry, looked up, the tested form may be a part): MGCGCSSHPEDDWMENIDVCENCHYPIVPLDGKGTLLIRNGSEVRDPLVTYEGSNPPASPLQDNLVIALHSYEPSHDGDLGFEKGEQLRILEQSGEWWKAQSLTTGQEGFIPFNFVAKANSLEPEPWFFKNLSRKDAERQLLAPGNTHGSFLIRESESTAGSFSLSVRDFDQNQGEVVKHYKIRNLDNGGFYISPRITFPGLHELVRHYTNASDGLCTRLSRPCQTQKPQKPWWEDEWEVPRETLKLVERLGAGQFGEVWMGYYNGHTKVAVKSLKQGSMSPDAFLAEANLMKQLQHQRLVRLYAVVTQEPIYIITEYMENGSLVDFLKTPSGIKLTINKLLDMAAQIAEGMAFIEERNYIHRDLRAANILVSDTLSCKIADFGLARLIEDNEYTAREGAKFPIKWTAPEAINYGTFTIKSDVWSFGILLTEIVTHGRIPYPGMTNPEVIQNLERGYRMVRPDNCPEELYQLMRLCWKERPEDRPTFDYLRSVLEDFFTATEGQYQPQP

[15] = target: Epithelial discoidin domain-containing receptor 1 (Homo sapiens, UniProt Q08345); conditions: at 1 µM
[16] = target: Platelet-derived growth factor receptor beta (Homo sapiens, UniProt P09619); conditions: at 1 µM
Sequence of Platelet-derived growth factor receptor beta (P09619 whole entry): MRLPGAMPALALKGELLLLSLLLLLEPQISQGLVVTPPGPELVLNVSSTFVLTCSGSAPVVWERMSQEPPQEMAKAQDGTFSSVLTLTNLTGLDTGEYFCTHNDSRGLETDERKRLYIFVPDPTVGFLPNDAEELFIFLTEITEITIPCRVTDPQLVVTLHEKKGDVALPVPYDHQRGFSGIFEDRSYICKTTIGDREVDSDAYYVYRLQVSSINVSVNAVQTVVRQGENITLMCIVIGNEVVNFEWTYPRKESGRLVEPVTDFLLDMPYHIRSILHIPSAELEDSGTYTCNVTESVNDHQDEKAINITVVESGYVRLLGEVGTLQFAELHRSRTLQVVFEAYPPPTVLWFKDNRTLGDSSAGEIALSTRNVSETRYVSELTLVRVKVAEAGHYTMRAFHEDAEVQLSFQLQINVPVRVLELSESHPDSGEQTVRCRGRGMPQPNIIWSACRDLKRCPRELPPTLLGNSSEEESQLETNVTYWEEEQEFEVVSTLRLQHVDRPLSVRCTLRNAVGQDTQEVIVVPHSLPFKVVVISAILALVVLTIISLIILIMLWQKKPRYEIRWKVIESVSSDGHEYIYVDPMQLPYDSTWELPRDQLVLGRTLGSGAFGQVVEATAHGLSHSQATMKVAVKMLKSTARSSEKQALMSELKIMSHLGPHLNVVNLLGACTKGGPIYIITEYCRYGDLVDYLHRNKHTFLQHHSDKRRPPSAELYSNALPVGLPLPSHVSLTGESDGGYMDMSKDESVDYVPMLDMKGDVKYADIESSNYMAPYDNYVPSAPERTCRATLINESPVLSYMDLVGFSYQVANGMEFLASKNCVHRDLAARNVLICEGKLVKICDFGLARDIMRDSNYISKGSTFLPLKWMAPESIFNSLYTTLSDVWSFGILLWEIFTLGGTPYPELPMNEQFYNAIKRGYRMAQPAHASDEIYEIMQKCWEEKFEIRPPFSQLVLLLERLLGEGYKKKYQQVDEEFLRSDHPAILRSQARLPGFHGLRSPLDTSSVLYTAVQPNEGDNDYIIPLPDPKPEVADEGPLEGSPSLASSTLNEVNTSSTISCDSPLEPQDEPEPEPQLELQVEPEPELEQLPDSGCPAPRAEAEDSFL

Sequence of Aurora kinase B (Q96GD4 whole entry): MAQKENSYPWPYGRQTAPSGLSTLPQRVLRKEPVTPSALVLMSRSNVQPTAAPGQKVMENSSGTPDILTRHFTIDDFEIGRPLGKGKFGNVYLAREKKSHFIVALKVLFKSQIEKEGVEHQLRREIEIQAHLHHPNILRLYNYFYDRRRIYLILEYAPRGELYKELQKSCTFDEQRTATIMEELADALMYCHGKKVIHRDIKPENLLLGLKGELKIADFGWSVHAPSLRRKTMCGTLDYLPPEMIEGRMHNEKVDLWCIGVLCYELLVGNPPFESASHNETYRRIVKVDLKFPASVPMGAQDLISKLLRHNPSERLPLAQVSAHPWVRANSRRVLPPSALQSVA

- IC50 (Aurora kinase B): 0.0194 µM
- IC50 [1]: 0.0166 µM
- % of control [2]: 6.8%
- % of control [3]: 1.6%
- % of control [4]: 5.5%
- % of control [5]: 0.9%
Compound: CN1C(=O)c2sccc2N(C)c2nc(Nc3ccc(S(N)(=O)=O)cc3)ncc21

- % of control [6]: 0%
- % of control [7]: 5.5%
- % of control [8]: 0.7%
- % of control [9]: 2%
- % of control [10]: 1.4%
- % of control [11]: 7.6%
- % of control (Focal adhesion kinase 1): 4.9%
Compound: CN(c1ccnc(CNc2nc(Nc3ccc4c(c3)CC(=O)N4)ncc2C(F)(F)F)n1)S(C)(=O)=O [PF-00911705]

Compound: CCOc1cn(-c2ccc(F)cc2C)nc1C(=O)Nc1ccc(Oc2ccnc3cc(OC)c(OC)cc23)c(F)c1
- % of control [12]: < 10%
- % of control [13]: < 10%
- % of control [14]: < 10%
- % of control [15]: < 10%
- % of control [16]: < 10%
